Results from the supplement of paper PMC10307832.

Columns and labels:
Experiment in all cases: relative viability (nuclei count vs DMSO), 5 days (fraction); higher = more cells survive
[1] = compound: CCn1c(-c2nonc2N)nc2cnc(Oc3cccc(NC(=O)c4ccc(OCCN5CCOCC5)cc4)c3)cc21 + Cc1cc(Nc2cc(N3CCN(C)CC3)nc(Sc3ccc(NC(=O)C4CC4)cc3)n2)n[nH]1 [Tozasertib] (partner 0.1 µM)
In short: (§1)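 Five library-drug doses in √10 steps were combined with a fixed anchor-drug dose, or a single drug was given alone, by pin tool to lung cancer cell lines in 1536-well plates the day after seeding. Nuclei were stained and counted after 5 days. Relative viability is the nuclei count in treated wells over that in vehicle wells, taken as the median of duplicate plates.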

Mirin + Olaparib = compound: N=C1NC(=O)/C(=C/c2ccc(O)cc2)S1 [Mirin] + O=C(c1cc(Cc2n[nH]c(=O)c3ccccc23)ccc1F)N1CCN(C(=O)C2CC2)CC1 [Olaparib] (partner 8 µM)
In short: as §1

[2] = compound: CCn1c(-c2nonc2N)nc2cnc(Oc3cccc(NC(=O)c4ccc(OCCN5CCOCC5)cc4)c3)cc21 + CS(=O)(=O)N1CCN(Cc2cc3nc(-c4cccc5[nH]ncc45)nc(N4CCOCC4)c3s2)CC1 [Pictilisib] (partner 1 µM)
In short: as §1

Mirin + Alpelisib = compound: N=C1NC(=O)/C(=C/c2ccc(O)cc2)S1 [Mirin] + Cc1nc(NC(=O)N2CCC[C@H]2C(N)=O)sc1-c1ccnc(C(C)(C)C(F)(F)F)c1 [Alpelisib] (partner 2 µM)
In short: as §1

UMC-11
relative viability ([1]; first compound 0.04 µM): 0.206
relative viability ([1]; first compound 0.1265 µM): 0.212
relative viability ([1]; first compound 0.4 µM): 0.205
relative viability ([1]; first compound 1.265 µM): 0.16
relative viability ([1]; first compound 4 µM): 0.186
relative viability (Mirin + Olaparib; first compound 0.25 µM): 0.382
relative viability (Mirin + Olaparib; first compound 0.7906 µM): 0.316
relative viability (Mirin + Olaparib; first compound 2.5 µM): 0.332
relative viability (Mirin + Olaparib; first compound 7.906 µM): 0.279
relative viability (Mirin + Olaparib; first compound 25 µM): 0.331
relative viability ([2]; first compound 0.04 µM): 0.908
relative viability ([2]; first compound 0.1265 µM): 0.751
relative viability ([2]; first compound 0.4 µM): 0.464
relative viability ([2]; first compound 1.265 µM): 0.241
relative viability ([2]; first compound 4 µM): 0.188
relative viability (Mirin + Alpelisib; first compound 0.25 µM): 1.03
relative viability (Mirin + Alpelisib; first compound 0.7906 µM): 0.958
relative viability (Mirin + Alpelisib; first compound 2.5 µM): 0.96
relative viability (Mirin + Alpelisib; first compound 7.906 µM): 0.935
relative viability (Mirin + Alpelisib; first compound 25 µM): 0.572
